Activity calls are given as the source filed them. The calls are words filed in the database; no cut-off is given here.
Columns and labels:
[1] = tested on: Hepatitis C virus serine protease, NS3/NS4A (Hepatitis C virus), D2K2A8+A3EZI9 [A156S]; assay: Inhibition of Hepatitis C virus genotype 1b Con1 NS3/4A A156S mutant by FRET assay; details: Hepatitis C virus (isolate Con1)
[2] = Half life in cynomolgus monkey liver microsomes; assay type: ADME, Macaca fascicularis
[3] = Clearance in rat liver microsomes assessed per mg protein; assay type: ADME; details: read-out: CLH
[4] = target: Hepatitis C virus serine protease, NS3/NS4A (Hepatitis C virus, UniProt A3EZI9+D2K2A8); assay: Inhibition of full length Hepatitis C virus genotype 1b Con1 NS3/4A by FRET assay; set-up: species or system Hepatitis C virus (isolate Con1)
[5] = Clearance in human liver microsomes assessed per mg protein; assay type: ADME; details: read-out: CLH
[6] = Selectivity index, ratio of CC50 for human Huh7 cells to EC50 for Hepatitis C virus genotype 1b Con1; assay type: toxicity, cell-based, Huh-7; details: read-out: Ratio CC50/EC50
[7] = Half life in rat liver microsomes; assay type: ADME
Hepatitis C virus = assay: Antiviral activity against Hepatitis C virus genotype 1b Con1 infected in human Huh7 cells assessed as inhibition of NS4A expression by ELISA; assay type: functional, cell-based, Hepacivirus hominis; details: genotype 1b Con1, Huh-7
[8] = Clearance in cynomolgus monkey liver microsomes assessed per mg protein; assay type: ADME, Macaca fascicularis; details: read-out: CLH
[9] = Half life in human liver microsomes; assay type: ADME
[10] = Inhibition of human leukocyte elastase

Chain of Hepatitis C virus serine protease, NS3/NS4A (D2K2A8 whole entry): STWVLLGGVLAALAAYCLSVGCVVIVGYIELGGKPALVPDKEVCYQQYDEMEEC
Chain of Hepatitis C virus serine protease, NS3/NS4A (A3EZI9 whole entry): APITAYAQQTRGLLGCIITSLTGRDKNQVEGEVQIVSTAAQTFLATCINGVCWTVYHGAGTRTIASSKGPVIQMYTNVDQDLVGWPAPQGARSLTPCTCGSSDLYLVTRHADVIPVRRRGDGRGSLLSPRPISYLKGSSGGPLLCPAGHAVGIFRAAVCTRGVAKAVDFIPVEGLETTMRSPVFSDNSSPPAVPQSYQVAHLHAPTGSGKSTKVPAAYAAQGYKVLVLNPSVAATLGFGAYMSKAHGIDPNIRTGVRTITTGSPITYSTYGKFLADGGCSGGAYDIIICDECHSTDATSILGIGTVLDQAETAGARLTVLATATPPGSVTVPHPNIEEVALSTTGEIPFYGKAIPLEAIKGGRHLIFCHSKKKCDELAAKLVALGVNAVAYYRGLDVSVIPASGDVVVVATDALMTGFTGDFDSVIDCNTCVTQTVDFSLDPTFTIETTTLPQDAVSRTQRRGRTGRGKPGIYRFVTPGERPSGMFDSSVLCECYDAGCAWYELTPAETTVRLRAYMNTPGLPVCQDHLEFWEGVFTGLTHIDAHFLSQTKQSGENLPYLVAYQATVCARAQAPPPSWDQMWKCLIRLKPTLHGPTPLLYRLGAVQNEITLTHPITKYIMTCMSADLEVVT

| Structure (SMILES) | IC50 [4] | EC50 (Hepatitis C virus) | further results |
| --- | --- | --- | --- |
| CC(C)(C)NC(=O)N[C@H](C(=O)N1C[C@H]2[C@@H]([C@H]1C(=O)NC(CC1CCC1)C(=O)C(N)=O)C2(C)C)C(C)(C)C (some centres not stated) |  |  | inhibition [1]: inactive |
| CCC[C@H](NC(=O)[C@@H]1[C@H]2CCC[C@H]2CN1C(=O)[C@@H](NC(=O)[C@@H](NC(=O)c1cnccn1)C1CCCCC1)C(C)(C)C)C(=O)C(=O)NC1CC1 [TELAPREVIR] |  |  | inhibition [1]: inactive; IC50 [10]: 600 nM |
| COc1ccc2c(OC[C@@H]3C[C@H]4C(=O)N(C)CCCC/C=C\[C@H]5C[C@]5(C(=O)NS(=O)(=O)C5CC5)NC(=O)N34)cc(-c3nc(C(C)C)cs3)nc2c1C | < 1000 nM | < 750 nM |  |
| COc1ccc2c(OC[C@@H]3C[C@H]4C(=O)N(C)CCCC/C=C\[C@H]5C[C@]5(C(=O)NS(=O)(=O)C5CC5)NC(=O)N34)cc(-c3ccccc3)nc2c1 | 45 nM | 1860 nM |  |
| COc1ccc2c(OC[C@@H]3C[C@H]4C(=O)N(C)CCCC/C=C\[C@H]5C[C@]5(C(=O)NS(=O)(=O)C5(C)CC5)NC(=O)N34)cc(-c3nc(C(C)C)cs3)nc2c1F | 16.8 nM | 872 nM | inhibition [1]: inactive |
| COc1ccc2c(OC[C@@H]3C[C@H]4C(=O)N(C)CCCC/C=C\[C@H]5C[C@]5(C(=O)NS(=O)(=O)C5CC5)NC(=O)N34)cc(-c3nc(C(C)C)cs3)nc2c1Cl | < 1000 nM | < 750 nM |  |
| COc1ccc2c(OC[C@H]3C[C@@H]4C(=O)N[C@@]5(C(=O)NS(=O)(=O)C6CC6)C[C@@H]5/C=C\CCCCN(C)C(=O)N34)cc(-c3ccccc3)nc2c1 | 278 nM |  |  |
| COc1ccc2c(OC[C@@H]3C[C@H]4C(=O)N[C@@]5(C(=O)NS(=O)(=O)C6CC6)C[C@@H]5/C=C\CCCCN(C)C(=O)N34)cc(-c3ccccc3)nc2c1 | 2400 nM |  |  |

Second part, led by results:

| IC50 [4] | EC50 (Hepatitis C virus) | Structure (SMILES) | further results |
| --- | --- | --- | --- |
| 2.1 nM | 60 nM | COc1ccc2c(OC[C@@H]3C[C@H]4C(=O)N(C)CCCC/C=C\[C@H]5C[C@]5(C(=O)NS(=O)(=O)C5(C)CC5)NC(=O)N34)cc(-c3nc(C(C)C)cs3)nc2c1Cl | half-life [2]: < 10 min; microsomal CLint [3]: > 150 µL/min/mg; microsomal CLint [5]: > 150 µL/min/mg; selectivity ratio [6]: > 1500; half-life [7]: < 10 min; microsomal CLint [8]: > 150 µL/min/mg; half-life [9]: < 10 min |
| 0.8 nM | 2.8 nM | COc1ccc2c(O[C@@H]3C[C@H]4C(=O)N[C@]5(C(=O)O)C[C@H]5/C=C\CCCCC[C@H](NC(=O)OC5CCCC5)C(=O)N4C3)cc(-c3csc(NC(C)C)n3)nc2c1 [CILUPREVIR] |  |
| 3.5 nM | 242 nM | COc1ccc2c(OC[C@H]3C[C@@H]4C(=O)N(C)CCCC/C=C\[C@H]5C[C@]5(C(=O)NS(=O)(=O)C5CC5)NC(=O)N34)cc(-c3ccccc3)nc2c1 |  |
| 6.6 nM | 45 nM | COc1ccc2c(OC[C@@H]3C[C@H]4C(=O)N(C)CCCC/C=C\[C@H]5C[C@]5(C(=O)NS(=O)(=O)C5(C)CC5)NC(=O)N34)cc(-c3nc(C(C)C)cs3)nc2c1C | half-life [2]: < 10 min; microsomal CLint [3]: > 150 µL/min/mg; microsomal CLint [5]: > 150 µL/min/mg; half-life [7]: < 10 min; microsomal CLint [8]: > 150 µL/min/mg; half-life [9]: < 10 min |
| 1.3 nM | 412 nM | COc1ccc2c(OC[C@@H]3C[C@H]4C(=O)N(C)CCCC/C=C\[C@H]5C[C@]5(C(=O)NS(=O)(=O)C5(C)CC5)NC(=O)N34)cc(-c3nc(C(C)C)cs3)nc2c1 |  |

— ChEMBL document CHEMBL3351305, “Structure-based design of a novel series of azetidine inhibitors of the hepatitis C virus NS3/4A serine protease” (Bioorg Med Chem Lett, 2014)
